Data set [1] can be described thus: Activation of rabbit psoas fast skeletal Myofibril. The class given is tissue-based, Oryctolagus cuniculus, Muscle tissue.
A short description of data set [2]: Half life in mouse liver microsomes. The data set is classed as ADME, Microsome.
Data set [3] can be described thus: Aqueous solubility of compound at pH 7.4. As to conditions: buffer. The class given is physicochemical.
Data set [4] in a line: AUClast in Spinal muscular atrophy mouse brain at 10 mg/kg, po by LC/MS-MS analysis. The class given is ADME, organism-based. More on the design: dose 10 mg/kg, route po.
A short description of data set [5]: AUClast in Spinal muscular atrophy mouse plasma at 10 mg/kg, po by LC/MS-MS analysis. The data set is classed as ADME, organism-based. Also noted: dose 10 mg/kg, route po.
Data set [6] is described as follows: Toxicity in Spinal muscular atrophy mouse assessed as survival rate at day 112 (reference value: 100 %). As to conditions: in vivo.
The nature of data set [7]: Toxicity in Spinal muscular atrophy mouse assessed as survival rate at 10 mg/kg, ip administered daily. The data set is classed as organism-based. As to conditions: in vivo.
The nature of data set [8]: Increase in SMN2 expression in human HEK293 cells assessed as luciferase reporter activity incubated for 24 hrs. Background: A reporter such as luciferase makes a cellular process visible.
Another data set has as its target T1, m7GpppX diphosphatase (Homo sapiens, UniProt Q96C86).
T1 sequence (Q96C86 whole entry): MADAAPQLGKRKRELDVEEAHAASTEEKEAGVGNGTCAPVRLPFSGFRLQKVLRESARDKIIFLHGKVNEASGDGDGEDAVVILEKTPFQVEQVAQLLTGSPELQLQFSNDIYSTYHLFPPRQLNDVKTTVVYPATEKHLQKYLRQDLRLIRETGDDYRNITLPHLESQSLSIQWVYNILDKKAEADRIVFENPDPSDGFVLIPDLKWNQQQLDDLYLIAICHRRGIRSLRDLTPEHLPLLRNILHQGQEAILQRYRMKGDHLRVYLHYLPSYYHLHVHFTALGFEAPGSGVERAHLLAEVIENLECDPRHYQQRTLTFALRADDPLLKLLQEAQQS
Briefly: Inhibition of human DcpS.

For data set [9], the system named is Mus musculus. The data set can be described thus: Modulation of human SMN2 mRNA level in Spinal muscular atrophy mouse muscle tissue at 10 mg/kg, po measured after 4 hrs. The data set is classed as functional.
In data set [10] the test system is Mus musculus. Briefly: Modulation of human SMN2 mRNA level in Spinal muscular atrophy mouse brain tissue at 10 mg/kg, po measured after 4 hrs. The data set is classed as functional.
A short description of data set [11]: Toxicity in Spinal muscular atrophy mouse assessed as survival rate at 0.3 mg/kg, ip administered daily for 40 days. The data set is classed as organism-based. As to conditions: in vivo, 960 h, time 40 day.
Data set [12] is described as follows: Toxicity in Spinal muscular atrophy mouse assessed as survival rate at 1 to 3 mg/kg, po administered daily for 65 days. The class given is organism-based. As to conditions: in vivo, 1560 h, dose 1-3 mg/kg, time 65 day.
The subject of data set [13] is Mus musculus. The data set can be described thus: Modulation of human SMN2 protein level in Spinal muscular atrophy mouse model assessed as increase in protein level of muscle tissue at 10 mg/kg, ip.
In data set [14] the test system is Mus musculus. The data set can be described thus: Modulation of human SMN2 protein level in Spinal muscular atrophy mouse model assessed as increase in protein level of brain tissue at 10 mg/kg, ip.
Data set [15] is described as follows: Brain to plasma ratio in Spinal muscular atrophy mouse at 3 mg/kg administered subcutaneously for 7 days. The class given is ADME, organism-based. As to conditions: route sc, time 7 day, read-out: BPR.
A short description of data set [16]: Brain to plasma ratio in Spinal muscular atrophy mouse at 3 mg/kg administered subcutaneously for 42 days. The class given is ADME, organism-based. As to conditions: route sc, time 42 day, read-out: BPR.
Data set [17] is described as follows: Toxicity in Spinal muscular atrophy mouse assessed as survival rate (reference value: 15 %). As to conditions: in vivo.
The nature of data set [18]: Half life in human serum measured upto 30 min by HPLC analysis.
Data set [19] in a line: Acute toxicity in Spinal muscular atrophy mouse assessed as survival rate. As to conditions: in vivo.
Data set [20] can be described thus: Toxicity in Spinal muscular atrophy mouse assessed as survival rate after 5 days. As to conditions: in vivo, 120 h, time 5 day.
The nature of data set [21]: Toxicity in Spinal Muscular atrophy mouse assessed as increase in survival rate. As to conditions: in vivo.

SMILES strings stand for the structures. In brackets after ≈: the same amount, converted by molar mass. A value given as a limit tells only on which side of the number the result lay.

As usually defined, the EC50 is the concentration at which the effect is half-maximal. The compound `C#Cc1cnc2nc(O)n(C(CC)CC)c2n1` yielded an EC50 in data set [1] of 3.4 µM.

Usually half-life stands for how long it takes for the measured level to halve. High values mean slow decline, low ones rapid decline. One may read the solubility as the dissolved amount per volume that the medium holds. A higher solubility goes with much dissolved substance. As to `CC(C)c1cc(C(=O)Nc2ccc(F)c(Cl)c2)no1`, in data set [2], the half-life is 5 min. Besides, the solubility in data set [3] turned out to be 6 µM (≈ 1.7 µg/mL).

In data set [2], `CC(C)c1cc(C(=O)Nc2ccccc2)no1` returned a half-life of 5 min. The solubility in data set [3] is 59 µM (≈ 13.6 µg/mL).

Broadly, the AUC(0-t) is the area under the concentration-time curve up to a stated or last time point. For the compound `Nc1nc(N)c2c(OCC3CCN(Cc4c(Cl)cccc4Cl)CC3)cccc2n1`, the results for the AUC(0-t) in data set [4] and in data set [5] were 6760 ng·h/mL and 157 ng·h/mL, respectively. Moreover, the Activity came to 27% in [6] and 26% in [7].

In [2], `COc1cc2c(c(OC)c1OC)C(c1cc(Br)ccc1F)CC(=O)N2` (stereo not drawn) displayed a half-life of 40 min. Further, the concentration giving a half-maximal response (EC50) at 24 h in data set [8] was found to be 8.3 µM. The compound further came in with a solubility in [3] of 4 µM (≈ 1.64 µg/mL).

As to `CC(C)c1cc(C(=O)Nc2ccccn2)no1`, in data set [2], the half-life is above 120 min. In addition, in [3], the solubility was found to be 77 µM (≈ 17.8 µg/mL).

In general, IC50 refers to the concentration needed to halve the response being measured. High values mean lower potency, low ones higher potency. On to `Nc1nc(N)c2c(OCC3CCN(C(=O)c4cccc([125I])c4)CC3)cccc2n1`, for which the IC50 on m7GpppX diphosphatase is 0.036 µM.

With `CCN1CCC(c2cc(C)c3nc(-c4cc5c(C)nc(C)cn5n4)cc(=O)n3c2)CC1`, the Activity with Mus musculus [9] stood at 50%; in the data set on Mus musculus [10], 90%; in data set [11], 50%; in [12] it was 90%; in the data set with Mus musculus [13], 90%; in the data set on Mus musculus [14], 150%.

As for `CC(C)CCC[C@@H](C)[C@H]1CC[C@H]2[C@@H]3CCC4=CC(=NO)CC[C@]4(C)[C@H]3CC[C@]12C` [OLESOXIME], the Kp at 168 h in [15] was 0.35. Moreover, the Kp at 1008 h in data set [16] amounted to 0.51. Also, in data set [17], the Activity is 45%.

Turning to `CCCC(=O)[O-].[Na+]` [SODIUM BUTYRATE], the half-life at 0.5 h in data set [18] is 6 min.

`CC(/C=C/C(=O)NO)=C\[C@@H](C)C(=O)c1ccc(N(C)C)cc1` [TRICHOSTATIN]: the Activity is given as 40% in data set [19] and 19% in [20].

As for `O=C(CCCCCCC(=O)Nc1ccccc1)NO` [VORINOSTAT], the Activity in data set [21] was 30%.

(Values after ChEMBL document CHEMBL5252529, “Small Molecules in Development for the Treatment of Spinal Muscular Atrophy” (J Med Chem, 2016).)
